From ChEMBL document CHEMBL1201862, “PubChem BioAssay data set” (2004)
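Assay format: 96-well plates, 48-hour exposure. GI50 is the concentration that inhibits growth by half.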 The source made the active and inactive calls. No stated cut-off is given here; in the data, active = GI50 up to about 1.1 µM and inactive = higher.

Assays:
Test in all cases: NCI anticancer screen, dose series, 48 h
PC-3 = test system: PC-3
SR = test system: SR
A498 = test system: A498
SK-MEL-5 = test system: SK-MEL-5
SF-295 = test system: SF-295
SK-MEL-2 = test system: SK-MEL-2
KM12 = test system: KM12
CAKI-1 = test system: CAKI-1
CCRF-CEM = test system: CCRF-CEM
COLO 205 = test system: COLO 205
IGROV-1 = test system: IGROV-1
SK-OV-3 = test system: SK-OV-3
T47D = test system: T47D
OVCAR-3 = test system: OVCAR-3
SF-268 = test system: SF-268
BT-549 = test system: BT-549
SNB-78 = test system: SNB-78
M14 = test system: M14
HOP-92 = test system: HOP-92
Hs-578T = test system: Hs-578T

Which results are given for `CS(=O)(=O)OCCN(CCOS(C)(=O)=O)c1ccc(/C=N/c2ccc3oc(=O)ccc3c2)cc1`?
GI50 (PC-3): 16.6 µM (inactive); GI50 (SR): 0.395 µM (active); GI50 (A498): 2 µM (inactive); GI50 (SK-MEL-5): 7.08 µM (inactive); GI50 (SF-295): 0.933 µM (active); GI50 (SK-MEL-2): 15.8 µM (inactive); GI50 (KM12): 8.41 µM (inactive); GI50 (CAKI-1): 0.622 µM (active); GI50 (CCRF-CEM): 0.871 µM (active); GI50 (COLO 205): 2.05 µM (inactive); GI50 (IGROV-1): 12 µM (inactive); GI50 (SK-OV-3): 1.11 µM (active); GI50 (T47D): 5.6 µM (inactive); GI50 (OVCAR-3): 3.58 µM (inactive); GI50 (SF-268): 5.13 µM (inactive); GI50 (BT-549): 10.5 µM (inactive); GI50 (SNB-78): 2.12 µM (inactive); GI50 (M14): 2.82 µM (inactive); GI50 (HOP-92): 12.3 µM (inactive); GI50 (Hs-578T): 28.1 µM (inactive)
